Source: patent US12293809B2, “Workflow for generating compounds with biological activity against a specific biological target” (INSILICO MEDICINE IP LIMITED, priority 2019, dated 2025)
Where “and” joins values, the source holds several entries; their conditions need not be identical. Equal entries are not always repeated. Where two headings read alike, the source gives them in different places. Blank lines part the entries; values can stand above or below the compound they belong to.

Assays:
[1] = Mouse PK study, PO administration; type: in vivo
[2] = 10 μM
Description: Test compounds (at 10 μM) were incubated at 25° C. with 50 mM phosphate buffer, pH=7.4 and 8 mM MOPS pH 7.0, 0.2 mM EDTA, pH=7.0. Duplicate samples were used. […] Curcumin was used as positive control in this assay at neutral-basic condition. Samples were analyzed by LC/MS/MS, disappearance of test compound was assessed based on peak area ratios of analyte/IS (no standard curve).

hDDR1 [3] = target: T1, hDDR1 (Homo sapiens, UniProt Q08345); assay: Rescreen in another biochemical assay (Thermo Fisher-PR6913A); conditions: read-out: IC50 towards DDR1 kinase, rescreen
T1 sequence (Q08345 19-913): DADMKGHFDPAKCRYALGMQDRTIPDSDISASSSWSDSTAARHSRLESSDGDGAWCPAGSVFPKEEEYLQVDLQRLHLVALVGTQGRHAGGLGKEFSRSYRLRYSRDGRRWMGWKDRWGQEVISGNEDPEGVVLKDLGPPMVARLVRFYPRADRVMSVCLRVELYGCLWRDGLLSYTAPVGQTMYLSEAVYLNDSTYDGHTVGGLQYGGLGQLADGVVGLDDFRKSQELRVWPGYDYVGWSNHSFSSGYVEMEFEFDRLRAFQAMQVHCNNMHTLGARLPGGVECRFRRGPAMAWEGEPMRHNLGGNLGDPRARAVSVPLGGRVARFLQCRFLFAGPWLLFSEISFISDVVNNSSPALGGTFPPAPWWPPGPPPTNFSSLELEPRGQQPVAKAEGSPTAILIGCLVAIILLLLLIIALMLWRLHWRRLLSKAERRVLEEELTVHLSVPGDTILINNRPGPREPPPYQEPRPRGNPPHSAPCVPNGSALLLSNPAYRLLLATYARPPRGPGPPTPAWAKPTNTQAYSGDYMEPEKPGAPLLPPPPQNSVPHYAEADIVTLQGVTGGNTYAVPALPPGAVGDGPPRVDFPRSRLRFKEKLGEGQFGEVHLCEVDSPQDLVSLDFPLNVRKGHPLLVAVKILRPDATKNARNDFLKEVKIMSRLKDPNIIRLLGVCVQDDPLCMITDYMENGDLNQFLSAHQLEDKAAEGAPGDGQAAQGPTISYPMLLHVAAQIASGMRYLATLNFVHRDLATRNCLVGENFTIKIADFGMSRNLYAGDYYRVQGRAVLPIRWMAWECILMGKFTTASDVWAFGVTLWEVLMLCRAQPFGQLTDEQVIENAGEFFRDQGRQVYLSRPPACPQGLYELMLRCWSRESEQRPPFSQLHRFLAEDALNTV
Description: In the present example, six molecules were generated, selected, and synthesized and were submitted for biological testing (e.g., within 35 days). […] Since the dose-response curves for Compounds 2 and 4 seemed likely inconsistent, additional experiments were performed to confirm the activity of these molecules towards DDR1 kinase (see FIG. 4B). […] Compounds 1 and 2 were also evaluated towards DDR2 kinase.
FIGS. 4A-4B show the structures and dose-response curves for the generated molecules. The six generated compounds were tested in a dose-dependent manner against DDR1 tyrosine kinase.

hDDR1 [4] = target: T1, hDDR1; assay: KinaseProfiler radiometric biochemical kinase assay (Eurofins); parameters: purchased Eurofins 14-942KP10
Description: The experimental procedures were performed by Eurofins. The activity of the molecules against hDDR1 and hDDR2 kinases was assessed using KinaseProfiler^67. […] The enzymatic reaction processed in the presence of Mg^2+ cations and ATP at room temperature for 40 minutes and terminated by addition of phosphoric acid. […] All the compounds were prepared in 100% DMSO. […] The biological evaluation of selectivity against non-target kinases was performed in Dundee Eurofins, using Scan Max Delta Panel [10 μM ATP] KinaseProfiler^68.

[5] = Microsomal stability (DLM); conditions: for Remaining (*NCF = 60 min) / Remaining (T = 60 min): 1 h
Description: (§1) Cold acetonitrile (ACN) including 100 ng/mL Tolbutamide and 100 ng/mL Labetalol as internal standard (IS) were used for stop solution. 10 μL compound or control working solution/well was added to all plates (T0, T5, T10, T20, T30, T60, NCF60) except matrix blank. Dispense 80 μL/well microsome solution was added to every plate by Apricot, the mixture of microsome solution and compound were incubated at 37° C. for about 10 min. After pre-warming, dispense 10 μL/well NADPH regenerating system was added to every plate by Apricot to start reaction. The solution was then incubated at 37° C. 300 (μL/well) stop solution (cold in 4° C.) was added to terminate the reaction. The sampling plates were shaken for approximately 10 min. Samples were centrifuged at 4000 rpm for 20 min under 4° C. While centrifuging, 8×new 96-well plate were loaded with 300 μL HPLC water, then 100 μL supernatant was transferred and mixed for LC/MS/MS.

Human DDR1b = target: T2, Human DDR1b (Homo sapiens, UniProt Q08345); assay: DDR1 autophosphorylation in collagen-stimulated U2OS cells (Western blot); type: cell-based; conditions: normalized to HA and GAPDH
T2 construct: expressed in transfected cells
T2 sequence (Q08345 19-913): as above
Description: The amount of activated DRR1 (Y543) was measured using Western blot analysis, the obtained data were normalized to HA and GAPDH protein levels.
Human DDR1b gene with HA-tag was cloned into pCMV Tet-On vector (Clontech) and stable inducible cell lines established in U2OS were used for the IC50 test. […] The cells were detached with trypsinization and transferred to a 15-ml tube.

[6] = Microsomal stability (MLM)
Description: as §1

[7] = PO 15 mg/kg, M04-M06 individual, c4 Mean ± SD, 15 mg/kg, mean

Bioavailability ([1]; PO 15 mg/kg vs IV 10 mg/kg, calculated using AUC0-inf): 17.8 ± — % | AUC0-inf [1, 7]: 1911 ± 94.3 ng·h/mL | AUC0-last [1, 7]: 1896 ± 93.7 ng·h/mL | AUCExtra [1, 7]: 0.787 ± 0.278% | AUMCExtra [1, 7]: 4.01 ± 1.60% | Cmax [1, 7]: 276 ± 75.4 ng/mL | MRT0-inf [1, 7]: 5.73 ± 0.999 h | MRT0-last [1, 7]: 5.54 ± 1.000 h | T1/2 [1, 7]: 3.29 ± 0.278 h | Tmax [1, 7]: 2.33 ± 1.53 h | Tlast ([1]; PO 15 mg/kg, M04-M06 individual, c4 Mean, 15 mg/kg, mean): 24.0 ± — h
SMILES: Cc1ccc2c(Nc3cccc(C(F)(F)F)c3)noc2c1C#Cc1cnc2cccnn12 [Compound 1]

SMILES: O=C(Nc1cccc(C(=O)N2CCN(c3ccnc4[nH]ccc34)C2)c1)c1cccc(C(F)(F)F)c1 [Compound 2]
% Remain ([2]; 8 mM MOPS pH 7.0, 0.2 mM EDTA, pH 7.0, 0 min): 100.00% | % Remain ([2]; 8 mM MOPS pH 7.0, 0.2 mM EDTA, pH 7.0, 120 min): 101.41% | % Remain ([2]; 8 mM MOPS pH 7.0, 0.2 mM EDTA, pH 7.0, 240 min): 103.81% | % Remain ([2]; 8 mM MOPS pH 7.0, 0.2 mM EDTA, pH 7.0, 360 min): 106.18% | % Remain ([2]; 8 mM MOPS pH 7.0, 0.2 mM EDTA, pH 7.0, 1440 min): 105.37% | % Remain ([2]; 50 mM phosphate buffer, pH 7.4, 0 min): 100.00% | % Remain ([2]; 50 mM phosphate buffer, pH 7.4, 120 min): 100.65% | % Remain ([2]; 50 mM phosphate buffer, pH 7.4, 240 min): 97.05% | % Remain ([2]; 50 mM phosphate buffer, pH 7.4, 360 min): 100.07% | % Remain ([2]; 50 mM phosphate buffer, pH 7.4, 1440 min): 107.23% | IC50 (hDDR1 [3]): 37 nM and 37.1 nM | activity against DDR1 kinase (in words) (hDDR1 [4]): low nanomolar range | LE** = 1.4*(pIC50)/N (hDDR1 [4]; N number of heavy atoms): 0.31 | IC50 (hDDR1 [4]; read-out: IC50, inhibition of DDR1 activity): 21 nM | CLint(mic) ([5]; DLM 0.5): 162.6 | CLint(mic) ([5]; HLM 0.5): 108.2 | T1/2 ([5]; dog, microsomes): 0.142 h | Remaining (*NCF = 60 min) ([5]; dog, microsomes): 99.9% | Remaining (T = 60 min) ([5]; dog, microsomes): 0.6% | T1/2 ([5]; human, microsomes): 0.213 h | Remaining (*NCF = 60 min) ([5]; human, microsomes): 88.7% | Remaining (T = 60 min) ([5]; human, microsomes): 2.8% | CLint(mic) ([5]; rat, microsomes): 80.6 | T1/2 ([5]; rat, microsomes): 0.287 h | Remaining (*NCF = 60 min) ([5]; rat, microsomes): 88.3% | Remaining (T = 60 min) ([5]; rat, microsomes): 7.1% | IC50 (Human DDR1b): 5.8 nM | CLint(mic) ([6]; MLM 0.5): 91.8 | T1/2 ([6]; mouse, microsomes): 0.252 h | Remaining (*NCF = 60 min) ([6]; mouse, microsomes, 1 h): 86.0% | Remaining (T = 60 min) ([6]; mouse, microsomes, 1 h): 5.3%
